# Experimental data: patent publication US20240390315A1, “NUTRITIONAL COMPOSITIONS” (MITOCHOLINE Ltd, priority 2021, published 2024)
# Legend:
# [1] = plasma, healthy adult males, single oral beverage supplying 550 mg choline, after overnight fasting; ranking among the three supplements
# Description: Study: a randomized cross-over study on 12 adult male subjects.
# Subjects: 12 healthy adult male subjects (3 placebo and 9 test supplement (each supplement group-3 subjects)) who are between 30 and 60 years of age.
# Duration: One-day oral administration of a choline supplement was followed by 1 week of wash-out before the start of administration of the next (different) choline supplement.
# Subjects took each of the three supplements in randomized sequence with interspersed wash-out periods of 1 week. […] The beverages were consumed in the morning after overnight fasting. Blood (2.7 ml EDTA) was taken before intake (−0.1 h) and at 0.5, 1, 1.5, 2, 3, 4, 5, and 6 h after intake. Collected blood was immediately centrifuged at 1000×g at room temperature for 10 min. Plasma was separated and stored at −80° C. until analysis. […] Equipment for analysis: TSQ Quantum Discovery MAX tandem mass spectrometer, a Finnigan Surveyor Autosampler Plus, and a Finnigan Surveyor MS Pump Plus (Thermo Fisher Scientific, Dreieich, Germany), and choline, betaine were separated on a Polaris Si-A® column at 40° C. and the components were analyzed.
# isolated mitochondria = settings: rat liver mitochondria incubated 15 min at 37° C. with test substrate, LC-MS/MS; compared with choline chloride
# Procedure: Livers from male Wistar rats were homogenized using a Teflon®-glass Potter-Elvehjem homogenizer in the isolation medium containing 0.25 M sucrose, 0.02 M Tris-HCl, 0.001 M EDTA, pH 7.2. The homogenates prepared in this way were centrifuged at 600 g for 10 min at 4° C. to precipitate nuclei and cell debris. Then the supernatant was separated from the sediment and subjected to centrifugation at 8500 g for 10 min at 4° C. to precipitate mitochondria.
# [2] = biological target: neuronal insulin receptor (Homo sapiens, UniProt P06213); settings: cited from earlier work
# Sequence of neuronal insulin receptor (P06213 28-1382): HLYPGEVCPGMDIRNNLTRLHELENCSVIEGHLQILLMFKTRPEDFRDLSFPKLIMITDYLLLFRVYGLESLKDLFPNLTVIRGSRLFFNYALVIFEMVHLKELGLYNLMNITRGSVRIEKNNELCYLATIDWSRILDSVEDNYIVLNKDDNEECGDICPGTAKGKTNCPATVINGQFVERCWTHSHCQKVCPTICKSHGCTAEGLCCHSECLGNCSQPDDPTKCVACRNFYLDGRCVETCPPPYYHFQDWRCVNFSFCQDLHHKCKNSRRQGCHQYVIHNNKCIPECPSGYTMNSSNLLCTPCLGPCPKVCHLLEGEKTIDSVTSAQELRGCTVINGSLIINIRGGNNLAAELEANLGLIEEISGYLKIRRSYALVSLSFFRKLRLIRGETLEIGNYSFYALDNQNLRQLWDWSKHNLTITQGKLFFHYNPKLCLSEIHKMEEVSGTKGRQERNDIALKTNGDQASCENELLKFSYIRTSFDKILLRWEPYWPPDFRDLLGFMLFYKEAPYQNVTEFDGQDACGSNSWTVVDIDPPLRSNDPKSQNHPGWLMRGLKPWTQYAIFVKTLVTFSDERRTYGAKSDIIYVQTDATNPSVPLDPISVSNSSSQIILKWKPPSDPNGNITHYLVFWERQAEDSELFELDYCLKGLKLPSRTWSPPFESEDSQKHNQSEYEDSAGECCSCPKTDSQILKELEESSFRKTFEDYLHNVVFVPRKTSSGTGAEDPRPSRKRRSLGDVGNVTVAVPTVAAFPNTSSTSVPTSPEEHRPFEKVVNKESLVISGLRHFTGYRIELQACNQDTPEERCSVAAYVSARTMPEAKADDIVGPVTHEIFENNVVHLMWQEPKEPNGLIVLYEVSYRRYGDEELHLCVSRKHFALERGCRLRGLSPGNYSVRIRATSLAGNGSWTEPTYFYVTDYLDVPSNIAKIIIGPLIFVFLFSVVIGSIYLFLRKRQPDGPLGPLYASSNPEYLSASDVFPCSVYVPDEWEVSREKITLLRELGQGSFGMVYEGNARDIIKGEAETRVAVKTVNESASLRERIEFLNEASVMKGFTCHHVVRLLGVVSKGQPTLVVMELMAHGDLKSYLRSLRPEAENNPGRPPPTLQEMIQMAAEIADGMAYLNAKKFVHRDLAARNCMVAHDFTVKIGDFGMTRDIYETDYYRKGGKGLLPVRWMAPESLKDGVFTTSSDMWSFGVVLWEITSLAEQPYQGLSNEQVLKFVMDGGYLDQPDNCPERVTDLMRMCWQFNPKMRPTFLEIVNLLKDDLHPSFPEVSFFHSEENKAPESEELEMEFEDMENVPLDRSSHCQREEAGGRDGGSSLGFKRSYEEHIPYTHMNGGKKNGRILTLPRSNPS
Compound,AUC (0-6 h) of betaine concentrations [1],betaine yield (concentration of betaine in the incubation medium) (isolated mitochondria),sensitization of the neuronal insulin receptor [2]
C[N+](C)(C)CCO.O=C([O-])C(O)C(O)C(=O)O (stereo not shown) [choline bitartrate],dicholine succinate>choline bitartrate>choline chloride,,
C[N+](C)(C)CCO.[Cl-] [choline chloride],lowest,,
dicholine succinate [DiSu],,higher betaine yields,potent sensitizer
